Measurements as given in article PMC8187479, “Sugar phosphate activation of the stress sensor eIF2B” (Nature Communications, 2021).
Peptide text beside a SMILES is read from it.

biological target: T1, eIF2Bα (Homo sapiens, UniProt Q14232); test: MIDAS (mass spectrometry integrated with equilibrium dialysis) metabolite binding screen; settings: MIDAS metabolite binding screen with eIF2Bα; sheet "eIF2Ba"
T1 construct: made in house; host or cells: E. coli BL21(DE3)
T1 sequence (Q14232 1-305): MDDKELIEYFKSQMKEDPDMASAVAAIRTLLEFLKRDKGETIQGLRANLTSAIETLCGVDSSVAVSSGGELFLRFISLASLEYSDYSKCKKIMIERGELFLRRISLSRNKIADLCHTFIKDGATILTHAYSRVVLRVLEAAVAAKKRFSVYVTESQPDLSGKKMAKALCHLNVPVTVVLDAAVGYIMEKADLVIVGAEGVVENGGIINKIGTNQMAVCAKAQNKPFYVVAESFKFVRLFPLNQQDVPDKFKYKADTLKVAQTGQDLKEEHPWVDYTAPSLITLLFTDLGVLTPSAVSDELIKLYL
Outline: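 Hits called at Storey q < 0.1 on z-scores of PCA-corrected log2 fold change between protein and metabolite chambers, quantified by FIA-MS in triplicate.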

SMILES | log2(corrected fold change)
Nc1nc2c(ncn2[C@@H]2O[C@H](COP(=O)(O)OP(=O)(O)O[C@H]3O[C@H](CO)[C@@H](O)[C@H](O)[C@@H]3O)[C@@H](O)[C@H]2O)c(=O)[nH]1 [Guanosine diphosphate mannose] | 0.001828
COc1cc(CC(=O)O)ccc1O [Homovanillic acid] | -0.006498
O=C(O)C(=O)CO [Hydroxypyruvate] | -0.04906
C[C@H](N)C(=O)O [L-Alanine] | 0.0004222
O=C[C@H](O)[C@@H](O)[C@@H](O)CO [L-Arabinose_1] | 0.02262
NC(=O)NCCC[C@H](N)C(=O)O [L-Citrulline] | -0.01086
N[C@@H](CS(=O)(=O)O)C(=O)O [L-Cysteic acid] | 0.001606
C[C@H](O)[C@@H](O)[C@@H](O)[C@H](O)C=O [L-Fucose] | -0.06063
O=C1O[C@H]([C@@H](O)CO)[C@H](O)[C@@H]1O [L-Gulonic acid gamma-lactone] | 0.02733
C[C@H](O)C(=O)O [L-Lactic acid] | -0.02892
N[C@@H](Cc1ccccc1)C(=O)O [L-Phenylalanine] | -0.04409
N[C@@H](CO)C(=O)O [L-Serine] | -0.04824
C[N+](C)(C)CCOP(=O)([O-])OC[C@H](O)CO [L-alpha-Glycerophosphorylcholine] | 0.1951
CC(C(=O)O)C(=O)O [Methylmalonic acid] | -0.05121
CN(C)CC(=O)O [N,N-Dimethylglycine] | 0.0213

Next, values leading:

log2(corrected fold change) | SMILES
0.01196 | Nc1nc2c(ncn2[C@@H]2O[C@H](CO)[C@@H](O)[C@H]2O)c(=O)[nH]1 [Guanosine]
0.07626 | O=C(O)CNC(=O)c1ccccc1 [Hippuric acid]
0.1853 | CC(C)CC(=O)SCCNC(=O)CCNC(=O)[C@H](O)C(C)(C)COP(=O)(O)OP(=O)(O)OC[C@H]1O[C@@H](n2cnc3c(N)ncnc32)[C@H](O)[C@@H]1OP(=O)(O)O [Isovaleryl coenzyme A]
0.06742 | O=C(O)CCC(=O)C(=O)O [Ketoglutaric acid]
-0.00688 | CC[C@@H](C)[C@H](N)C(=O)O [L-Alloisoleucine]
-0.01554 | NCCC(=O)N[C@@H](Cc1cnc[nH]1)C(=O)O [L-Carnosine]
-0.03443 | N[C@@H](CCSC[C@H](N)C(=O)O)C(=O)O [L-Cystathionine]
0.04101 | N[C@@H](CSSC[C@H](N)C(=O)O)C(=O)O [L-Cystine]
-0.0359 | C[C@@H]1O[C@H](OP(=O)(O)O)[C@@H](O)[C@H](O)[C@@H]1O [L-Fucose 1-phosphate]
-0.0058 | O=C(O)CC[C@H](O)C(=O)O [L-Hydroxyglutaric acid]
-0.00688 | CC[C@H](C)[C@H](N)C(=O)O [L-Isoleucine]
-0.00688 | CC(C)C[C@H](N)C(=O)O [L-Leucine]
-0.01079 | O=C(O)C[C@H](O)C(=O)O [L-Malic acid]
-0.0272 | N[C@@H](CCCCN[C@@H](CCC(=O)O)C(=O)O)C(=O)O [L-Saccharopine]
-0.05619 | C[C@@H](O)[C@H](N)C(=O)O [L-Threonine]
-0.02331 | CC(C)(CO[P@@](=O)(O)O[P@@](=O)(O)OC[C@H]1O[C@@H](n2cnc3c(N)ncnc32)[C@H](O)[C@@H]1OP(=O)(O)O)[C@@H](O)C(=O)NCCC(=O)NCCSC(=O)CC(=O)O [Malonyl coenzyme A]
-0.003615 | OC[C@H]1O[C@H](OCC2O[C@@H](O)[C@H](O)[C@@H](O)[C@@H]2O)[C@H](O)[C@@H](O)[C@H]1O (stereo partly drawn) [Melibiose]
0.1173 | CC(=O)N[C@@H](CC(=O)O)C(=O)N[C@@H](CCC(=O)O)C(=O)O [N-Acetyl-Asp-Glu] (Ac-Asp-Glu-OH)
-0.08166 | CC(=O)N[C@H]1C(OP(=O)(O)O)O[C@H](CO)[C@@H](O)[C@@H]1O (stereo partly drawn) [N-Acetyl-D-glucosamine 1-phosphate]
-0.009906 | CC(=O)N[C@H]1C(O)O[C@H](COP(=O)(O)O)[C@@H](O)[C@@H]1O (stereo partly drawn) [N-Acetyl-D-glucosamine 6-phosphate]
0.03658 | CC(=O)N[C@@H]1C(O)O[C@H](CO)[C@@H](O)[C@@H]1O (stereo partly drawn) [N-Acetyl-D-mannosamine]
0.003577 | CC(=O)N[C@@H](CC(=O)O)C(=O)O [N-Acetyl-L-aspartate]
0.006675 | CC(=O)N[C@@H](CCC(=O)O)C(=O)O [N-Acetyl-L-glutamic acid]
0.002532 | CC(=O)N[C@H]1C(O)O[C@H](CO)[C@@H](O)[C@@H]1O[C@H](C)C(=O)O (stereo partly drawn) [N-Acetylmuramic acid]
-0.0313 | CC(=O)N[C@H]1[C@H]([C@H](O)[C@H](O)CO)OC(O)(C(=O)O)C[C@@H]1O (stereo partly drawn) [N-Acetylneuraminic acid]

same assay, conditions: MIDAS screen, sheet eIF2Ba; metabolites screened in pools 1-4; p-value and q-value given

SMILES | log2(corrected fold change)
NCCc1c[nH]cn1 [Histamine] | 0.1325
NC(=O)NCCCC[C@H](N)C(=O)O [Homocitrulline] | 0.1565
NCCS(=O)O [Hypotaurine] | 0.03998
O=c1[nH]cnc2nc[nH]c12 [Hypoxanthine] | 0.136
CC[C@H](N)C(=O)O [L-2-Aminobutyric acid] | -0.1029
NC(=O)C[C@H](N)C(=O)O [L-Asparagine] | 0.07649
N[C@@H](CS)C(=O)O [L-Cysteine] | -0.1221
O=C1C[C@@H](C(=O)O)NC(=O)N1 [L-Dihydroorotic acid] | -0.07946
N[C@@H](CCC(=O)O)C(=O)O [L-Glutamic acid] | -0.006334
NCCCC[C@H](N)C(=O)O [L-Lysine] | -0.06897
CSCC[C@H](N)C(=O)O [L-Methionine] | 0.06465
O=C(O)[C@@H]1CCCCN1 [L-Pipecolic acid] | -0.07553
O=C(O)[C@@H]1CCCN1 [L-Proline] | -0.05584
O=C(O)[C@@H]1CCC(O)=N1 [L-Pyroglutamic acid] | -0.09309
O=C(CO)[C@@H](O)[C@@H](O)CO [L-Ribulose] | -0.1354
N[C@@H](Cc1c[nH]c2ccccc12)C(=O)O [L-Tryptophan] | 0.08785
O=P(O)(O)OC1O[C@H](CO)[C@@H](O)[C@H](O)[C@@H]1O (stereo partly drawn) [Mannose 1-phosphate] | -0.1344
CNCC(O)c1ccc(O)c(OC)c1 (stereo not drawn) [Metanephrine] | -0.1853
CC(=O)NCCc1c[nH]c2ccc(O)cc12 [N-Acetyl-5-hydroxytryptamine] | 0.03423
CC(=O)N[C@@H](C)C(=O)O [N-Acetyl-L-alanine] | 0.07527

Continued, values first:

log2(corrected fold change) | SMILES
0.3966 | Nc1nc2c(ncn2[C@@H]2O[C@H](COP(=O)(O)OP(=O)(O)OP(=O)(O)O)[C@@H](O)[C@H]2O)c(=O)[nH]1 [Guanosine 5-triphosphate]
-0.08584 | O=C(O)Cc1cc(O)ccc1O [Homogentisic acid]
-0.2055 | O=c1[nH]cnc2c1ncn2[C@@H]1O[C@H](COP(=O)(O)OP(=O)(O)OP(=O)(O)O)[C@@H](O)[C@H]1O [Inosine 5-triphosphate]
0.3045 | O=c1[nH]cnc2c1ncn2[C@@H]1O[C@H](CO)[C@@H](O)[C@H]1O [Inosine]
-0.09012 | CC(C)C(=O)NCC(=O)O [Isobutyrylglycine]
-0.3372 | OC[C@H]1O[C@H](OC[C@H]2OC(O)[C@H](O)[C@@H](O)[C@@H]2O)[C@H](O)[C@@H](O)[C@@H]1O (stereo partly drawn) [Isomaltose]
-0.1354 | O[C@@H]1[C@@H](O)[C@@H](O)CO[C@H]1O [L-Arabinose]
0.03257 | N[C@@H](CC(=O)O)C(=O)O [L-Aspartate]
0.1976 | NC(=O)CC[C@H](N)C(=O)O [L-Glutamine]
0.05971 | N[C@@H](Cc1c[nH]cn1)C(=O)O [L-Histidine]
0.1418 | Nc1ccccc1C(=O)C[C@H](N)C(=O)O [L-Kynurenine]
-0.07845 | CC(C)[C@H](N)C(=O)O [L-Valine]
-0.1203 | N[C@@H](CC(=O)O)C(=O)N[C@@H](Cc1ccccc1)C(=O)O [L-a-Aspartyl-L-phenylalanine] (H-Asp-Phe-OH)
0.08913 | CC(=O)N[C@H]1[C@H](O[C@H]2[C@H](O)[C@@H](NC(C)=O)C(O)O[C@@H]2CO)O[C@H](CO)[C@@H](O)[C@@H]1O (stereo partly drawn) [N,N-Diacetylchitobiose]
-0.1649 | O=C(O)CNC(=O)c1ccco1 [N-2-Furoylglycine]
0.3673 | CC(=O)N[C@H]1C(O)O[C@H](CO)[C@H](O)[C@@H]1O (stereo partly drawn) [N-Acetyl-D-galactosamine]
0.3673 | CC(=O)N[C@@H]1[C@@H](O)[C@H](O)[C@@H](CO)O[C@@H]1O [N-Acetyl-D-glucosamine]
-0.2203 | CC(=O)NCCCCN [N-Acetylputrescine]
